Data published in US10947229B2, “Dimethyl amino azetidine amides as JAK inhibitors” (THERAVANCE BIOPHARMA R&D IP, LLC, priority 2018, dated 2021).

Key:
[1] = system: spontaneous IL-6 secretion; assay: Inhibition of spontaneous IL-6 secretion in human 3D airway cultures from asthmatic donors; assay type: cell-based; conditions: 192 h, 8 days, 3 or 4 donors
Experimental: EpiAirway tissue cultures were obtained from Mattek (AIR-100). Cells were derived from asthmatic donors that spontaneously secrete periostin, a matricellular protein associated with Th2 mediated asthma (eosinophilic), and interleukin-6 (IL-6), an inflammatory cytokine that plays a role in both Th2 and non-Th2 related asthma. In a cell culture insert, human derived tracheal/bronchial epithelial cells were grown and differentiated on a porous membrane support, allowing an air-liquid interface with warmed culture medium below the cells and a gaseous test atmosphere above. Tissues were cultured in maintenance media ([…]) in a 37° C., 5% CO2 humidified incubator. Four donors were tested. On Day 0, tissue cultures were treated with test compounds in liquid interface at 10 μM, 1 μM and/or 0.1 μM. Compounds were diluted in dimethyl sulfoxide (DMSO, Sigma) to a final concentration of 0.1%. DMSO at 0.1% was used as a vehicle control. Tissue cultures were maintained for 8 days. Media was replaced every 2 days with fresh media containing compounds. On Day 8, supernatants were collected for analysis. Supernatant samples were assayed for periostin and interleukin-6 (IL-6) using luminex analysis (EMD Millipore). Data is expressed as % Inhibition+/-standard deviation (±STDV). Percent inhibition was determined by compound inhibitory potency against spontaneous secretion of periostin and IL-6 compared to vehicle treated cells. Data is the average from 3 or 4 donors.

JAK2 = JAK2 (Homo sapiens (Human), UniProt O60674); assay: Biochemical JAK kinase assay (LanthaScreen), JAK2; conditions: read-out: JAK2 pKi (converted)
Sequence of JAK2 (O60674 whole entry): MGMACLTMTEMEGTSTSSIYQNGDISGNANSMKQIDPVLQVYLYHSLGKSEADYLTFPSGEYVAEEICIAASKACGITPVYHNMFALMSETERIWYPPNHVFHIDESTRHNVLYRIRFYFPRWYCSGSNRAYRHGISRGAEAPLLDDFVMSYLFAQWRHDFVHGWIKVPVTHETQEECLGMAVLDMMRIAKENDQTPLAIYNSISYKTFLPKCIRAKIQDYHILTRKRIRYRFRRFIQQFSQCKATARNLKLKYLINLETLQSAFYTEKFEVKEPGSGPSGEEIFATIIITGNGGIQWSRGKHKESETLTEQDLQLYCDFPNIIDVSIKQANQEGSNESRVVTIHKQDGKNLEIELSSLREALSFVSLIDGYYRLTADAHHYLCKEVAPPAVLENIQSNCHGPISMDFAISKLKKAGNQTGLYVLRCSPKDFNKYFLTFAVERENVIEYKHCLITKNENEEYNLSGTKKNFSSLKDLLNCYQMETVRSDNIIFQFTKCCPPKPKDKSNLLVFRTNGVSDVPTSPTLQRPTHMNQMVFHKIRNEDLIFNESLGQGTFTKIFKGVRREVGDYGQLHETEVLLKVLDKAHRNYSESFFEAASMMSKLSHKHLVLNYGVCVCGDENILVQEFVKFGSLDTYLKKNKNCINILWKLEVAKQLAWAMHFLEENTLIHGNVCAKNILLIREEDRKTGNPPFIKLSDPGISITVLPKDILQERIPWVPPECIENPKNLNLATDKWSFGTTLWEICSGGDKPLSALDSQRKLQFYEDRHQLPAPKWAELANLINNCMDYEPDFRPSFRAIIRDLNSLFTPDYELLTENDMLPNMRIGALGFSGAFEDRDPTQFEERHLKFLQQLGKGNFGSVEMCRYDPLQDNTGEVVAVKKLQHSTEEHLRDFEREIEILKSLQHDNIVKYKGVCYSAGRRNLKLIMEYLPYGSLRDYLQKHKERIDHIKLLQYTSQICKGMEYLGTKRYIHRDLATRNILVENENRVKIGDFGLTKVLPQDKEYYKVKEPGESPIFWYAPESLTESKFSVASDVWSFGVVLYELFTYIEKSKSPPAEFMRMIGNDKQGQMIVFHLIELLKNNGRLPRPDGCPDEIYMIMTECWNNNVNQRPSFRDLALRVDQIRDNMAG
Experimental: Recombinant GST-tagged JAK enzymes and a GFP-tagged STAT1 peptide substrate were obtained from Life Technologies. Serially diluted compounds were pre-incubated with each of the four JAK enzymes and the substrate in white 384-well microplates (Corning) at ambient temperature for 1 h. ATP was subsequently added to initiate the kinase reactions in 10 μL total volume, with 1% DMSO. […] Kinase reactions were allowed to proceed for 1 hour at ambient temperature before a 10 μL preparation of EDTA (10 mM final concentration) and Tb-anti-pSTAT1 ([…]) antibody (Life Technologies, 2 nM final concentration) in TR-FRET dilution buffer (Life Technologies) was added. The plates were allowed to incubate at ambient temperature for 1 h before being read on the EnVision reader (Perkin Elmer). Emission ratio signals (520 nm/495 nm) were recorded and utilized to calculate the percent inhibition values based on DMSO and background controls. For dose-response analysis, percent inhibition data were plotted vs. compound concentrations, and IC50 values were determined from a 4-parameter robust fit model with the Prism software (GraphPad Software). Results were expressed as pIC50 (negative logarithm of IC50) and subsequently converted to pKi (negative logarithm of dissociation constant, Ki) using the Cheng-Prusoff equation. Test compounds having a lower Ki value or higher pKi value in the four JAK assays show greater inhibition of JAK activity.

[2] = system: IFNγ secretion in mixed lymphocyte reaction; assay: Inhibition of IFNγ secretion in a mixed lymphocyte reaction assay; assay type: cell-based, human
Experimental: The mixed lymphocyte reaction assay is an in-vitro assay that mimics transplant rejection. T cells from one donor are cultured with allogeneic dendritic cells from another donor. This reaction induces a cellular immune response such as IFNγ secretion. CD14+ monocytes were isolated from human whole blood (Stanford blood center) of donor A using a ficoll gradient and magnetic seperation (CD14 microbeads, Miltenyi). […] Cells were harvested, washed with media, re-suspended to 400,000 cells/ml in media and plated at 10,000 cells/well/25 μl. CD4+ T cells were freshly isolated from human whole blood (Stanford blood center) of donor B using a ficoll gradient and magnetic separation (CD4+ T cell isolation kit, Miltenyi). T cells were re-susepended to 4,000,000 cells/ml in RPMI (Life Technologies) supplemented with 10% Fetal Bovine Serum (FBS, Life Technologies), 2 mM Glutamax (Life Technologies), 25 mM HEPES (Life Technologies) and 1× Pen/Strep (Life Technologies). CD4+ T cells were mixed with the dendritic cells at 100,000 cells/well/25 μl. Cells were treated with test compounds (50 μl at 20 μM, 2 μM and/or 0.2 μM) to a final concentration of 10 μM, 1 μM and/or 0.1 μM. Compounds were diluted in dimethyl sulfoxide (DMSO, Sigma) to a final concentration of 0.1%. DMSO at 0.1% was used as a vehicle control. Cells were maintained for 5 days in a 37° C., 5% CO2 humidified incubator. On day 5, supernatants were collected and measured for interferon gamma (INFγ) using enzyme linked immunosorbent assay (ELISA). Percent inhibition was determined by compound inhibitory potency against IFNγ secretion compared to vehicle treated cells. Data is the average from 4 donors.

[3] = system: IL-27 induced CXCL10 secretion; assay: Inhibition of IL-27 induced CXCL10 in human 3D airway cultures; assay type: cell-based; conditions: 192 h, 8 days, 4 donors
Experimental: EpiAirway tissue cultures were obtained from Mattek (AIR-100). Cultures were derived from asthmatic donors. In a cell culture insert, human derived tracheal/bronchial epithelial cells were grown and differentiated on a porous membrane support, allowing an air-liquid interface with warmed culture medium below the cells and a gaseous test atmosphere above. Tissues were cultured in maintenance media ([…]) in a 37° C., 5% CO2 humidified incubator. Four donors were tested. On Day 0, tissue cultures were treated with test compounds in liquid interface at 10 μM, 1 μM and/or 0.1 μM. Compounds were diluted in dimethyl sulfoxide (DMSO, Sigma) to a final concentration of 0.1%. DMSO at 0.1% was used as a vehicle control. […] Tissue cultures were maintained for 8 days. Media was replaced every 2 days with fresh media containing compounds and IFNγ or IL-27. On Day 8, tissue cultures and supernatants were collected for analysis. Supernatant samples were assayed for CXCL10 (IP-10) and CXCL9 (MIG) using luminex analysis (EMD Millipore). Data is expressed as % Inhibition+/-standard deviation (±STDV). Percent inhibition was determined by compound inhibitory potency against IFNγ or IL-27 induced CXCL10 or CXCL9 secretion compared to vehicle treated cells. Data is the average from 4 donors.

[4] = Pharmacokinetics in plasma and lung in mouse; assay type: in vivo; conditions: single oral aspiration, 0.2 mg/mL, 50 μL
Experimental: Plasma and lung concentrations of test compounds and ratios thereof were determined in the following manner. BALB/c mice from Charles River Laboratories were used in the assay. Test compounds were individually formulated in 20% propylene glycol in pH 4 citrate buffer at a concentration of 0.2 mg/mL and 50 μL of the dosing solution was introduced into the trachea of a mouse by oral aspiration. At various time points (typically 0.167, 2, 6, 24 hr) post dosing, blood samples were removed via cardiac puncture and intact lungs were excised from the mice.

`CCc1cc(O)ccc1-c1ccc2c(-c3nc4c([nH]3)CN(C(C)C)[C@H](C(=O)N3CC(N(C)C)C3)C4)n[nH]c2c1` [Compound 1, (S)-(3-(dimethylamino)azetidin-1-yl)(2-(6-(2-ethyl-4-hydroxyphenyl)-1H-indazol-3-yl)-5-isopropyl-4,5,6,7-tetrahydro-3H-imidazo[4,5-c]pyridin-6-yl)methanone] gave an inhibition at 0.1 µM ([1]; 0.1 μM) of 10%, an inhibition at 1 µM ([1]; 1 μM) of 70% and an inhibition at 10 µM ([1]; 10 μM) of 91%. The Ki (JAK2) was 31.6 pM, the inhibition at 0.1 µM ([2]; Homo sapiens, Lymphocyte, 120 h, 0.1 μM, 5 days, 4 donors) was 43% and the inhibition at 10 µM ([2]; Homo sapiens, Lymphocyte, 120 h, 10 μM, 5 days, 4 donors) was 99%. The inhibition at 1 µM ([2]; Homo sapiens, Lymphocyte, 120 h, printed "at μM" (middle concentration, 1 μM in the method), 5 days, 4 donors) was 76%, the “inhibition of IFNγ secretion (in words)” value ([2]; mixed lymphocyte reaction) was “effectively inhibit IFNγ secretion” and the inhibition at 0.1 µM ([3]; 0.1 μM) was 25%. It also gave an inhibition at 1 µM ([3]; 1 μM) of 98%, an inhibition at 10 µM ([3]; 10 μM) of 100% and an AUC(0-t) ([4]; BALB/c, in vivo, 10 µg/animal, read-out: Plasma AUC(0-24)) of 943 ng·h/mL. For the same molecule, the “Lung Tissue AUC(0-24)” value [4] was 54.5 µg·h/g.
